The text below walks through data of paper PMC5560554, “Targeting of CDK9 with indirubin 3’-monoxime safely and durably reduces HIV viremia in chronically infected humanized mice” (PLoS ONE, 2017).

A short description of data set [1]: Toxicity study in BALB/c mice (daily i.p. 14 days; blood counts and chemistry profiles). It counts as in vivo. The settings on record: daily i.p. doses of up to 20 mg/kg for 14 days. Here is the method:
IM (Cayman Chemicals, Ann Arbor, MI) was dissolved in 10% Cremophor EL (Sigma, St. Louis, MO). Adult, female BALB/c mice were treated with IM (2.5, 5, and 20 mg/kg; n = 5 per dose) or its vehicle (10% Cremophor EL; n = 5) daily, via intraperitoneal (i.p.) injections, for 14 days. We used mice from a single sex to reduce potential variability of the data, although gender is not expected to have an effect on the toxicity of IM. On day 14, animals were anesthesized with ketamine-xylazine (100-150mg/kg Ketamine + 10-16mg/kg Xylazine) and, after confirming (via toe pinch) that a deep surgical plane of anesthesia had been reached, blood was collected by cardiac puncture. Blood samples were submitted for measurements of blood chemistry profiles and of blood counts.
There is currently limited information on IM toxicity. […] To better evaluate the toxicity of IM we conducted toxicity studies following standard protocols. We used BALB/c mice because, unlike NSG mice, are fully immunocompetent and thus more suitable for assessing hematological toxicities. BALB/c mice were treated with IM (2.5, 5 and 20 mg/kg; n = 5 per dose) or its vehicle (n = 5) daily, via i.p. injections, for 14 days. […] Mice were monitored daily for morbidity and mortality. […] The other 19 mice remained healthy and had no evidence of morbidity. […] Creatinine levels below reference ranges may be due to sample hemolysis. […]

Another data set relates to HIV BaL. Kind of data set: Antiviral activity of IM during chronic HIV infection in HSC-NSG mice. It counts as in vivo. An excerpt:
NSG mice were humanized at the age of 2–3 days, following whole body irradiation ([…]) and hepatic injection of 1.2x10^5 human cord blood-derived CD34+ cells (Lonza, Walkersville, MD). At week 12, mice were checked for human cell reconstitution by double staining with FITC-conjugated antihuman CD45 antibody (BD Pharmingen) and APC-conjugated antimouse CD45 antibody (BD Pharmingen). Mice were considered successfully transplanted if they had ≥ 5% of human CD45+ cells in peripheral blood. Successfully transplanted mice were infected, via i.p. injection, with 15,000 TCID50 units of the CCR5-tropic HIV reference strain BaL.
Plasma HIV RNA levels were quantified by an in-house real-time RT PCR using HIV Gag primers SK38/SK39 and SYBR green dyes, as in our previous studies. The assay has a sensitivity of 150 copies HIV RNA/40μL plasma. Percentages of human CD4+ and CD8+ T cells were determined by flow cytometry analysis using fluorochrome labeled antibodies against human CD4 (clone SK3), CD8 (SK1), CD3 (clone SK7), and CD45 (clone 2D1) (BD Biosciences). Data were acquired in a BD FACSCalibur flow cytometer and analyzed using FLowJo software (v. 9.7.7). CD4/CD8 ratios were calculated and plotted using GraphPad Prism 5.0 software.
We next evaluated the antiviral activity of IM in HSC-NSG mice chronically infected with HIV. For this, 12-week old HSC-NSG mice were infected with HIV BaL. Five weeks after infection, animals initiated daily i.p. treatment with IM (5 and 20 mg/kg/day) or vehicle control for 15 weeks. Each experimental and control group had 5 mice. Viral replication was monitored by measuring HIV RNA in plasma by RT-PCR. Blood CD4/CD8 ratios were measured by Flow Cytometry. Mice treated with 5 mg/kg dose had modest, but significant, declines in plasma HIV RNA during the 15-week treatment period (Fig 2a). By the end of the study, plasma HIV RNA levels were 2.1 log10 units lower in mice treated with 5 mg/kg IM compared to controls. The CD4/CD8 ratios increased to similar levels in IM (5 mg/kg) and control groups for most of the study duration.
Fig 2 IM reduces HIV viremia in HSC-NSG chronically infected with HIV. Twelve-week old HSC-NSG mice were infected with HIV BaL. Five weeks after infection, treatment was initiated at IM doses of 0 (vehicle alone) and 5 mg/kg/day. Each group had 5 mice. Treatment was continued for 15 weeks. Blood samples collected at the indicated time points were evaluated for plasma HIV RNA levels by quantitative RT-PCR (A), and for CD4/CD8 ratios by Flow Cytometry Analysis (B). At each time point, data were tested for statistical significant differences by Mann-Whitney U tests (GraphPad Prism Software, La Jolla, CA); P < 0.05 was considered significant. Shaded boxes indicate duration of treatment.

The next data set concerns HIV-1 NL4-3. Kind of data set: Drug susceptibility assay in PHA-activated PBMCs (HIV p24 ELISA day 7). The class given is cell-based. The settings on record: PBMCs, NL4-3, day 7. As to the method:
The ARTs tenofovir, raltegravir and indinavir were obtained from the NIH AIDS Research and Reference Reagent Program (Gaithersburg, MD). Drug susceptibility assays were performed in PBMCs as previously. Briefly, donor PBMCs were activated by culture with phytohemagglutinin (PHA) for 3 days. Activated PBMCs were infected with HIV (M.O.I of 0.001) for 2 hours in the absence of IM or ARTs, washed to remove non-adsorbed virus, and plated in culture medium containing IL-2 and various dilutions of IM and ARTs alone and in combination. On day 3, fresh medium with fresh drug was added to the cultures. On day 7, cultures were evaluated for HIV production by measuring HIV p24 levels in the culture supernatants by ELISA (PerkinElmer Life Sciences, Inc., Boston, Massachusetts). Data were normalized to p24 levels in drug untreated controls (100%) and EC50 values determined by fitting the data to sigmoidal dose-response (variable slope) curves using GraphPad Prism 5.0 software.
A potential use of CDK9 inhibitor for the treatment of HIV will probably be in combination with ARTs from other classes. We thus evaluated the antiviral interaction between IM and ARTs from the NRTI, integrase and protease inhibitor classes in PBMCs infectivity assays in vitro. We used the virus strain HIV-1 NL4-3 to ensure a robust viral replication in the assays. Although HIV-1 NL4-3 differs from HIV-1 BaL in usage of coreceptor for cell entry, it is expected to have similar sensitivity to the tested ARTs. […] These enhancements of ART potencies by IM are consistent with targeting of different steps of the HIV cycle by IM and the tested ARTs.
For orientation: ELISA stands for enzyme-linked immunosorbent assay.

For the next data set, the system named is HIV. Details: method as in PMID 16284457. The settings on record: lymphocytes; read-out: EC50 for inhibition of HIV in vitro; cited from earlier work.
The next data set relates to CDK9. Details: method as in PMID 16284457. The settings on record: cited from earlier work.
The next data set concerns primary lymphocytes. The settings on record: cited from earlier work.
Another data set has as its system macrophages. The settings on record: cited from earlier work.
For data set [2] the following is noted: in vivo; cited from earlier work.
The mark [3] stands for this setting: HIV BaL, 20 mg/kg/day i.p., 5 weeks, limited data (S1 Fig).

pEC50: −log10 of the molar value. Values joined by “and” are separate entries in the source; they are usually repeats but may differ in a detail not shown here. Identical values can stand only once. “Also recorded” adds a separate entry of the source.

Turning to `O=C1Nc2ccccc2/C1=C1/Nc2ccccc2/C1=N\O` [IM, Indirubin 3’-monoxime], in data set [1], the “hematologic, renal or liver toxicity” value is reported as “not associated with hematologic, renal or liver toxicity; also recorded: no hematologic, liver or renal toxicity”. In the data set on HIV BaL (20 mg/kg/day i.p., euthanized after 5 weeks of treatment), the “human T cells in blood” value is reported as “progressive losses in human T cells in blood”. The “CD4/CD8 ratios by the end of the study vs control” value in the data set with HIV BaL (HIV BaL chronic infection, 5 mg/kg/day i.p. for 15 weeks) is listed as “significantly higher”. The “plasma HIV RNA levels lower compared to controls by the end of the study” value with HIV BaL (HIV BaL chronic infection, 5 mg/kg/day i.p. for 15 weeks, 5 mg/kg/day) is 2.1 log10 units and ~ 2 log10 units. Besides, the “increases in CD4/CD8 ratios” value in the data set on HIV BaL (setting [3]) was “no consistent inhibition of plasma HIV RNA or increases in CD4/CD8 ratios”. For the same molecule, in the data set with HIV BaL (setting [3]), the “inhibition of plasma HIV RNA” value is “no consistent inhibition of plasma HIV RNA”. Also, the P24 in the data set with HIV-1 NL4-3 (IM alone (IND 0 nM), IND experiment, untreated control 55.00) worked out at 4.00 ng/mL; with HIV-1 NL4-3 (IM alone (RAL 0 nM), RAL experiment, untreated control 24.0), 8.00 ng/mL; in the data set with HIV-1 NL4-3 (IM alone (TDF 0 µM), TDF experiment, untreated control 50.0), 10.0 ng/mL. Moreover, in the data set with HIV, the pEC50 (commonly the EC50 on a negative log10 scale, so that one unit is a factor of ten) is 6.00. Besides, the “inhibition of CDK9 relative to other CDKs” value in the data set on CDK9 is given as “inhibits CDK9 more potently than other CDKs”. Besides, the cytotoxicity entry with primary lymphocytes and with macrophages was “not cytotoxic” throughout. Further, the penetration in brain result in data set [2] is “favorable penetration in brain”.
